Non-standard residues stand in square brackets, D forms with d. Residues, ends and D or L forms follow the SMILES beside them. ξ: configuration not given here. *: point of attachment. ξF = NC(Cc1ccccc1)C(=O)O; Boc = CC(C)(C)OC(=O)*
Row | SMILES | melting point [°C]
1 | Cc1ccc(S(=O)(=O)OCCC2Cc3ccccc3O2)cc1 (stereo not given) | 51 to 54
2 | NC(=NO)c1c(F)cccc1Cl | 115 to 120
3 | O=C(O)[C@@H]1CCCN1C(=O)CCBr | 83 to 85
4 | Cc1cn(C2CC(C#N)C(COC(c3ccccc3)(c3ccccc3)c3ccccc3)O2)c(=O)[nH]c1=O (stereo not given) | 153 to 157
5 | C[C@@H]1CN(Cc2ccc(COc3cccc4c3CN(C3CCC(=O)NC3=O)C4=O)cc2)C[C@H](C)O1 (stereo not given in full) | 164 to 166
6 | O=C1NC(=Cc2cccc(Cl)c2Cl)C(=O)C1=NO | 180
7 | Cc1sc(-c2ccccc2)nc1COc1ccc(CON=C(CCC(=O)O)c2ccccc2)cc1 | 99 to 100
8 | CC(=O)Nc1ccc(S(=O)(=O)Nc2cc(Cl)nc(N3CCCC3)n2)cc1 | 229 to 233
9 | CCCC(=O)Nc1c([N+](=O)[O-])c(C(C)(C)C)nn1-c1c(Cl)cc(C(F)(F)F)cc1Cl | 152 to 154
10 | Cc1c(SCCCn2c([N+](=O)[O-])cnc2C)ccnc1CSc1ncccn1 | 141 to 143
11 | Cc1cc2c(OCc3ccc(-c4nnn[nH]4)cc3)cccc2o1 | 196 to 197
12 | CCC1CN(C2C(=O)N(c3c(Cl)cc(Cl)cc3Cl)N=C2NC(=O)c2cccc(NC(=O)COc3ccc(C(C)(C)CC)cc3C(C)(C)CC)c2)CCC1C (stereo not given) | 145 to 155
13 | O=C1NCCN1OCc1ccccc1 | 64 to 65
14 | CCCCc1oc2ccccc2c1-c1ncc(-c2ccc3cc(OCc4ccc(C(=O)OC)cc4C(=O)OC)ccc3c2)o1 | 195 to 197
15 | FC(F)(F)c1ccc(-c2cc(C(F)(F)F)c(Br)nn2)cc1 | 123 to 125
16 | CN(CC(O)C(N)C(=O)c1cccc(C(F)(F)F)c1)c1ccc(Cl)cc1 (stereo not given) | 128 to 132
17 | CCOC(=O)C=CN1C(C)(C)CC(OC(=O)CCl)CC1(C)C | 80 to 82
18 | CC(=O)N1CCN(CC2CN=C(c3cc4cc(OCCCS(C)(=O)=O)cc(N(C)S(=O)(=O)c5ccccn5)c4[nH]3)S2)CC1 (stereo not given) | 165 to 167
19 | O=C(Nc1ccc(C(F)(F)F)cc1)NC1CCN(C(=O)c2cccnc2)CC1 | 213 to 217
20 | NS(=O)(=O)c1cc2[nH]c(=O)ccc2s1 | > 300
21 | NCc1ccc2c(c1)ncn2-c1cccc(-c2ccc(F)nc2)c1 | 141 to 143
22 | Cc1cc(C)c2nc(C)n(Cc3ccc(NCC4CCN(C(C)C)CC4)cc3)c2n1 | 134 to 136
23 | NC(=O)c1cnc2sccc2c1Cl | 159 to 160
24 | CC(C)c1ccc(S(=O)(=O)n2c(Cc3ccc(C(=O)O)c(O)c3)cc3cc(C(F)(F)F)ccc32)cc1 | 150
25 | Nc1nc(N)c(-c2cc(Cl)ccc2Cl)c(C(F)(F)F)n1 | 215 to 217

Row | SMILES | melting point [°C]
26 | Clc1ccc(NC2CCC3(CCNCC3)CC2)cc1Cl | 128 to 132
27 | CCn1c(=O)c2nc(C(=O)O)cn2c2ccccc21 | 250 to 252
28 | CCCOC(=O)C1Oc2ccccc2Cc2ccccc2O1 | 82 to 85
29 | FC(F)(F)c1ccc(C2=CCC(N3CCN(Cc4ccccc4)CC3)CC2)cc1 (stereo not given) | 115 to 116
30 | O=C1N=C2C(=O)SC=C2N1 | 177 to 180
31 | CCOC(=O)c1cnn(C)c1C(=O)Nc1ccc2nc(-c3ccccc3)nn2c1 | 251 to 254
32 | O=C(O)CCC(=O)c1ccc(-c2ccc(Cl)cc2F)cc1 | 127 to 129
33 | Cc1c(-c2ccc(OC3CCCC3)cc2)[nH]c2ccc(OCc3ccccc3)cc12 | 161 to 167
34 | CCCNC(=O)c1cc2c(nc(C)n2C)c2c1CCC(c1ccccc1)O2 (stereo not given) | 273
35 | C=CCNc1nc(NCC=C)c2scc(Br)c2n1 | 87 to 88
36 | CC(C)CCCC(O)(Cn1cncn1)C(C)(C)C (stereo not given) | 45 to 48
37 | Cc1cc(Br)cnc1CCCNc1ncc(Cc2cccnc2)cc1O | 141 to 143
38 | CCOC(=O)c1c(C)nc2[nH]c3ccccc3c2c1N | 253 to 254
39 | Oc1ccc2c(-c3ccccn3)noc2c1Cl | 209 to 211
40 | O=C(CCc1cnn(-c2ccccc2)c1-c1ccccc1)Nc1ccc(C(=O)O)cc1 | 254 to 256
41 | O=c1[nH]c2cc(S(=O)c3cccc4cnccc34)c([N+](=O)[O-])cc2s1 (stereo not given) | > 270
42 | COC(=O)C(=O)CC(=O)/C=C/c1ccc(Cl)cc1 | 135 to 136
43 | O=C(NC1CC1)c1cccc(-c2cccn3c(=O)n(Cc4cccc(C(F)(F)F)c4)nc23)c1 | 157 to 158
44 | O=c1[nH]cnc2ccc(C=Cc3ccncc3)cc12 | 307 to 309
45 | O=C(Nc1ccc(C(=O)N2Cc3ccc(C(=O)C(Cl)(Cl)Cl)n3Cc3ccccc32)cc1)c1ccccc1C(F)(F)F | 219 to 221
46 | CCOC(=O)c1c(Oc2ccc(Cl)cc2N)c2ccccc2n1C | 118 to 120
47 | COc1ccccc1C(=O)N1CCN(C(=O)CNC2CCN(Cc3ccccc3)CC2)C(c2ccc(Cl)c(Cl)c2)C1 (racemic) | 71 to 73
48 | O=C(Nc1c([N+](=O)[O-])cnn1-c1c(Cl)cc(C(F)(F)F)c(Cl)c1Cl)C(F)(F)F | 136 to 137
49 | CNC(=O)C(Cc1ccccc1)NC(=O)CNC(=O)OC(C)(C)C (stereo not drawn) (Boc-Gly-[ξF]-NHMe) | 158 to 160
50 | COc1cc(C(=O)NCCc2ccc(N)cc2)cc(OC)c1OC(C)=O | 178 to 180

Row | SMILES | melting point [°C]
51 | O=C(COc1cc(-c2cccs2)nc2ccccc12)N1CCOCC1 | 198
52 | CNC(=O)N(O)CCNC(=O)c1ccc2ccccc2n1 | 158 to 159
53 | CCOC(=O)c1nn(-c2cccc(Br)c2)c(=O)c2c(N)scc12 | 163 to 165
54 | [N-]=[N+]=Nc1cc(=O)n(-c2ccccc2)nc1C1=NCCN1 | 238 to 240
55 | Cc1c(C(=O)Nc2ccc(N3CCC(N4CCOCC4)CC3)cc2C#N)cnn1-c1ccc(Cl)cc1 | 212 to 213
56 | C/C(=C\c1ccc(C(=O)OCc2ccccc2)cc1)c1ccc2c(c1)C(C)(C)CCC2(C)C | 113 to 114
57 | CCCCCCCCCCCCCCN(C(=O)CCCCCCCCCCC)C1(N)OC(CO)C(O)C(O)C1C(=O)C(N)C(=O)CNC (stereo not given) | 116
58 | O=c1ccc(-c2ccc(-n3ccnc3)nc2)n[nH]1 | 261 to 263
59 | C=CCNc1c(CO)cnc2cn(C(C)(C)OC)nc12 | 152 to 154
60 | O=C(O)C(=O)CC(=O)c1ccnn1Cc1ccc(F)cc1 | 157 to 159
61 | OCc1ccc(OCc2coc(-c3ccccc3)n2)cc1 | 141 to 142
62 | CCN(C(=O)C1CC1)c1cccc(-c2ccnc3c(C(=O)c4ccco4)cnn23)c1 | 182 to 184
63 | COCC(C)n1nc(-c2c(-c3ccccc3)nn3ccc(OC)cc23)ccc1=O (stereo not given) | 138 to 139
64 | CC1=C(C(=O)c2ccc(Cl)cc2)C(=O)C2C=CC=CC2C1=O (stereo not given) | 136 to 137
65 | O=C(NC(=O)N1CCC(Cc2ccccc2)CC1)c1ccc(O)cc1 | 95
66 | CC1(C)C(NN)=Nc2ccccc2C1(O)c1ccccc1 (stereo not given) | 195 to 196
67 | CCOC(=O)CCC(C)Oc1ccc2c(c1)C(N(CC)S(C)(=O)=O)CC(C)(C)O2 (stereo not given) | 65 to 67
68 | COc1ccc(CCNc2nc(N)c3nc(-c4ccco4)oc3n2)cc1 | 194 to 196
69 | CC1=NS(=O)(=O)N(C)C(Cl)=N1 | 86 to 90
70 | Cn1nnnc1CN1C2CCC1CC(Oc1ccc(Cl)c(Cl)c1)C2 (stereo not given) | 119 to 120
71 | CSc1nc(=O)n(C)c(=O)[nH]1 | 243 to 244
72 | Cc1cc(-c2nnc3cc(C(C)(C)C)c(OCc4ncn(C)n4)nn23)no1 | 221 to 223
73 | COc1cc2c(cc1CCC#N)C(=O)CC(C)(C)O2 | 105 to 107
74 | COc1ccc2[nH]c3c(C)c4ccnc(NC5CC(C)(C)NC(C)(C)C5)c4cc3c2c1 | 223 to 225
75 | Cc1nc(Cl)c(SC(F)F)n1-c1c(Cl)cc(C(F)(F)F)cc1Cl | 118

Row | SMILES | melting point [°C]
76 | Cc1nc2ccsc2c(=O)n1-c1ccccc1Cl | 118 to 121
77 | CCCCCCCCCCCCCCOc1cccc(CC(=O)OC)c1 | 31 to 33
78 | CN=C(NS(=O)(=O)c1ccc(Cl)c(Cl)c1)SC | 158 to 159
79 | NS(=O)(=O)c1nc(-c2cccc(Cl)c2)ns1 | 182 to 184
80 | CCCCc1cnc(-c2ccc(C#N)c(F)c2)nc1 | 87
81 | Cc1nc(N)[nH]c(=O)c1N1CCN(c2ccc(CN)cc2)CC1 | 281 to 282
82 | C=C(CC(Cl)(Cl)Cl)c1cnc(Cl)c(Cl)c1 | 76 to 77
83 | CCOC(=O)C1=C[C@H](NC(=O)OC(C)(C)C)[C@@H](NC(C)=O)[C@@H]2OC(C)(C)O[C@H]12 | 174 to 175
84 | COc1cc(NC=CS(=O)(=O)F)c(C(C)=O)cc1OC | 142 to 146
85 | O=C(O)c1cc(Cl)cc(OCc2ccccc2)c1 | 127 to 129
86 | CCc1cc(=O)c2nc(OCC[Si](C)(C)C)ccc2[nH]1 | 193
87 | COc1ccn(-c2nc(C)c(C(=O)NCc3cccnc3)s2)c(=O)c1 | 200 to 202
88 | CCCCC(Cn1cnc([N+](=O)[O-])c1)c1ccc(Cl)cc1Cl (stereo not given) | 67 to 69
89 | C=CCOC(=O)N1CCCC(OC)C1CC(=O)Cn1cnc2cc(Br)c(Cl)cc2c1=O (stereo not given) | 112
90 | CCCCC(=O)Nc1ccc([N+](=O)[O-])cc1 | 107 to 116
91 | CS(=O)(=O)Nc1cc(C(=O)O)c2c(c1)C(C(=O)O)CCN2 (stereo not given) | 188 to 190
92 | CCc1cnc(Nc2ccccn2)s1 | 113
93 | COC(CC#N)=NC#N | 45.5
94 | CS(=O)(=O)OCCOCCOC(=O)Cc1ccccc1Nc1c(Cl)cccc1Cl | 87
95 | CCc1nnc(-c2ccc(N(C)C)cc2)n1-c1ccc(OC)cc1 | 148
96 | COc1c(OC)c(OC(C)=O)c2cc(OCCc3ccccc3)ccc2c1OC(C)=O | 70 to 71
97 | CCc1c(Sc2cc(C)cc(C)c2)n(C/C=C/CO)c(=O)[nH]c1=O | 157 to 158
98 | COc1ccc(C2=NC(C)(C)C(c3cccs3)C2)cc1 (stereo not given) | 84
99 | Cc1ccc(S(=O)(=O)NC(=O)N2C(=O)C(C)N2C(c2ccccc2)c2ccccc2)cc1 (stereo not given) | 155 to 159
100 | CCOC(=O)c1ccc(-c2csc(-c3ccc(Cl)cc3)n2)cc1 | 105 to 106

— a melting point compilation (Tetko et al.; mined from patent text by program, amines drawn as free bases though some values may be those of a salt)
